Measurements as given in patent US12138398B2, “Methods and devices for providing a stimulus to a subject to induce gamma oscillations” (Massachusetts Institute of Technology, priority 2015, dated 2024).

How the values were obtained:
CK-p25 Tg mice [1] = assay: Cortical (Hoechst) and neuronal (NeuN) layer thickness in CK-p25 Tg mice; assay type: in vivo, mouse; settings: visual cortex; for thickness of V1-neuronal layer: NeuN
Experimental: A study was conducted to examine the effect of gamma exposure and/or administration in accordance with some embodiments on DNA damage and neuronal loss in the visual cortex of a subject. For the study, an inducible mouse model of p25 accumulation (i.e., a creatine kinase carboxyl-terminal fragment p25 Tg mouse (CK-p25 Tg mouse)) was used.
A study was conducted to compare groups of mice under different treatment regimens. FIG. 84 is a diagram of the groups including CK-control mice 8400, untreated CK-p25 Tg mice 8402, CK-p25 Tg mice treated with memantine (10 mg/kg daily) 8404, CK-p25 Tg mice exposed to the 40-Hz light flicker (one hour daily for 6 weeks) in accordance with some embodiments 8406, and CK-p25 Tg mice treated with memantine and also exposed to the 40-Hz light flicker 8408. Memantine is a medication used with limited success to treat severe AD by blocking NMDA receptors, thereby acting on the glutamatergic system.
Cortical layer loss was gauged using nuclear staining with Hoechst labels (i.e., blue fluorescent dyes used to stain DNA). Neuronal layer loss was gauged using NeuN, a neuronal nuclear antigen that is commonly used as a biomarker for neurons. FIG. 89 is a bar graph depicting average thickness of the V1-cortical layer in each group, and FIG. 90 is a bar graph depicting average thickness of the V1-NeuN-positive cell layer in each group.

CK-p25 Tg mice [2] = assay: NeuN-positive cells (neuronal loss) in CK-p25 Tg mice; assay type: in vivo, mouse
Experimental: A study was conducted to examine the effect of gamma exposure and/or administration in accordance with some embodiments on DNA damage and neuronal loss in the visual cortex of a subject. For the study, an inducible mouse model of p25 accumulation (i.e., a creatine kinase carboxyl-terminal fragment p25 Tg mouse (CK-p25 Tg mouse)) was used. […] A study was conducted to compare groups of mice under different treatment regimens. FIG. 84 is a diagram of the groups including CK-control mice 8400, untreated CK-p25 Tg mice 8402, CK-p25 Tg mice treated with memantine (10 mg/kg daily) 8404, CK-p25 Tg mice exposed to the 40-Hz light flicker (one hour daily for 6 weeks) in accordance with some embodiments 8406, and CK-p25 Tg mice treated with memantine and also exposed to the 40-Hz light flicker 8408. Memantine is a medication used with limited success to treat severe AD by blocking NMDA receptors, thereby acting on the glutamatergic system. FIG. 98 is a bar graph comparing the amount of NeuN-positive cells as a percentage of the NeuN-positive cells in CK-control mice for the CK-control mice, untreated CK-p25 Tg mice, CK-p25 Tg mice treated with memantine, CK-p25 Tg mice exposed to the 40-Hz light flicker in accordance with some embodiments, and CK-p25 Tg mice treated with both memantine and the 40-Hz light flicker. Thus, the percentage of the CK-control mice NeuN-positive cells are 100% in the CK-control mice, but only about 80% in untreated CK-p25 Tg mice, corroborating neuronal loss in the CK-p25 Tg mouse model. […] Thus, FIG. 98 illustrates how 40-Hz visual flicker treatment in accordance with some embodiments can preserve neurons in the visual cortex.

[3] = memantine + 40-Hz light flicker
[4] = memantine alone, compared to untreated CK-p25 Tg

Compound: CC12CC3CC(C)(C1)CC(N)(C3)C2 [memantine]
- thickness of V1-neuronal layer (CK-p25 Tg mice [1]; [3]): 691 ± 20 µm
- thickness of V1-neuronal layer (CK-p25 Tg mice [1]; memantine alone): 660 ± 7 µm
- thickness of V1-cortical layer (CK-p25 Tg mice [1]; [3]): 821 ± 22 µm
- thickness of V1-cortical layer (CK-p25 Tg mice [1]; memantine alone): 788 ± 9 µm
- neuronal loss (NeuN-positive cells) in hippocampus (CK-p25 Tg mice [2]; [3]): prevented some neuronal loss
- neuronal loss (NeuN-positive cells) in insular cortex (CK-p25 Tg mice [2]; [3]): prevented the least neuronal loss
- neuronal loss (NeuN-positive cells) in somatosensory cortex (CK-p25 Tg mice [2]; [3]): prevented most neuronal loss
- neuronal loss (NeuN-positive cells) in visual cortex (CK-p25 Tg mice [2]; [3]): failed to prevent as much neuronal loss
- neuronal loss (NeuN-positive cells) in hippocampus (CK-p25 Tg mice [2]; [4]): prevented some neuronal loss
- neuronal loss (NeuN-positive cells) in insular cortex (CK-p25 Tg mice [2]; [4]): prevented some neuronal loss
- neuronal loss (NeuN-positive cells) in somatosensory cortex (CK-p25 Tg mice [2]; [4]): failed to prevent any neuronal loss
- neuronal loss (NeuN-positive cells) in visual cortex (CK-p25 Tg mice [2]; [4]): prevented some neuronal loss
